Data published in article PMC6017322, “Triterpene Acids from Frankincense and Semi-Synthetic Derivatives That Inhibit 5-Lipoxygenase and Cathepsin G” (Molecules : A Journal of Synthetic Chemistry and Natural …, 2018).

Columns and labels:
[1] = target: T1, 5-LO (Homo sapiens, UniProt P09917); assay: 5-LO product formation in intact human neutrophils stimulated with A23187 (cell-based); set-up: 5-LO product formation in intact human neutrophils; endogenous in cells; host or cells: freshly isolated human peripheral blood neutrophils; settings: for IC50: human neutrophils stimulated with A23187; for remaining activity at 10 µM / 5-LO Activity [% Control] cell-based: residual activity at 10 µM, A23187, mean ± SEM, 3–4 experiments; for remaining activity at 10 µM: read-out: 5-LO Activity [% Control] cell-based
T1 sequence (P09917 1-674): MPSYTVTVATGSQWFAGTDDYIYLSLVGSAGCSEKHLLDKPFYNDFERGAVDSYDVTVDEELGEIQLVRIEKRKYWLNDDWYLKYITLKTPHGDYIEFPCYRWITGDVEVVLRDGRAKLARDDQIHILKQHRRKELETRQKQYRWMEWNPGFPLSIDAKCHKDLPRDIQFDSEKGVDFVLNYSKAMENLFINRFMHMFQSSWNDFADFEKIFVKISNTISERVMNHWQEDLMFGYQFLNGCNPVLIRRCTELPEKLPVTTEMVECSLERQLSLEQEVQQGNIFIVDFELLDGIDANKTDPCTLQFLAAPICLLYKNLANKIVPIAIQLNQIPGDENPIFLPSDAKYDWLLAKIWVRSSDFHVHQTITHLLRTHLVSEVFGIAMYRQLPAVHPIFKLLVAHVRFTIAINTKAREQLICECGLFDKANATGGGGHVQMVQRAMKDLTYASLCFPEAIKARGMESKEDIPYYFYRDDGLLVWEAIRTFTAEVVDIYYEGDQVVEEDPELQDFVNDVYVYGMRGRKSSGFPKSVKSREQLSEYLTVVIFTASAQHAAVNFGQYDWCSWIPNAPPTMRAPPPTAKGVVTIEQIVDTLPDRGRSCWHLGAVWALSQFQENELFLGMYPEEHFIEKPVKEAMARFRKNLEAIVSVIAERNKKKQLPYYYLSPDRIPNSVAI
Description: Neutrophils were isolated from peripheral blood (University Hospital Tübingen, Germany), collected from fasted healthy adult donors that were informed about the aim of the study and gave written consent. Leukocyte concentrates were obtained by centrifugation (4000× g, 20 min, 20 °C) of heparinized blood preparation, and neutrophils were immediately isolated as described before. Briefly, leukocyte concentrates were subjected to dextran sedimentation and centrifuged on lymphocyte separation medium (LSM 1077, PAA, Coelbe, Germany). For isolation of pelleted neutrophils, remaining erythrocytes were removed by hypotonic lysis, washed twice with ice-cold phosphate-buffered saline (PBS) and finally resuspended in PBS buffer containing 0.1% glucose and CaCl2 (1 mM) (PGC buffer).
5-LO product formation in intact human neutrophils was performed using 5 × 10^6 freshly isolated cells that were resuspended in 1 mL PGC buffer. Cells were pre-incubated with the test compounds or vehicle (0.1% DMSO) at 37 °C for 15 min prior to stimulation with 2.5 µM Ca^2+-ionophore A23187 for 10 min (37 °C). 5-LO product formation was stopped by addition of one volume of ice-cold methanol, samples were subjected to solid phase extraction after addition of 200 ng PGB1 as internal standard, and 5-LO products (LTB4, its trans-isomers and 5-HETE) were analyzed by RP-HPLC as described above.

[2] = target: T1, 5-LO; assay: 5-LO activity in a cell-free assay (isolated human recombinant 5-LO, 20 µM arachidonic acid); assay type: biochemical; set-up: made in house; host or cells: Escherichia coli BL21 (pT3-5-LO plasmid); settings: for IC50: isolated human 5-LO; for IC50 / remaining activity at 10 µM / 5-LO Activity [% Control] cell-free: 20 µM arachidonic acid; for remaining activity at 10 µM / 5-LO Activity [% Control] cell-free: residual activity at 10 µM, isolated 5-LO, mean ± SEM, 3–4 experiments; for remaining activity at 10 µM: read-out: 5-LO Activity [% Control] cell-free; for inhibition at 10 µM / inhibition of 5-LO activity, cell-free: at 10 µM
Description: Human recombinant 5-LO was expressed in Eschericha coli BL21 transformed with pT3-5-LO plasmid at 30 °C overnight, as described elsewhere. Cells were lysed in lysis buffer containing triethanolamine (50 mM, pH 8.0), EDTA (5 mM), phenylmethanesulfonyl fluoride (1 mM), soybean trypsin inhibitor (60 µg/mL), dithiothreitol (2 mM), and lysozyme (1 mg/mL), and homogenized by sonification (3 × 15 s). 5-LO was then purified from 40,000× g supernatant (20 min, 4 °C) using an ATP-agarose column (Sigma-Aldrich, Deisenhofen, Germany), diluted with PBS buffer containing 1 mM EDTA, and immediately used for 5-LO activity assays.
To determine 5-LO activity, aliquots of purified 5-LO (0.5 µg 5-LO in 1 mL PBS plus 1 mM EDTA) were pre-incubated with the test compounds or vehicle (0.1% dimethyl sulfoxide, DMSO) on ice for 15 min, pre-warmed for 30 s at 37 °C in a water bath, and then stimulated with 20 µM AA and CaCl2 2 mM for 10 min at 37 °C. The reaction was stopped with one volume of ice-cold methanol and 5-LO products (including all-trans-isomers of LTB4 and 5-hydroperoxyeicosatetraenoic acid (5-HpETE), as well as its corresponding alcohol 5-hydroxyeicosatetraenoic acid (5-HETE)) were analyzed by reversed phase (RP)-HPLC (Elite LaChrom, VWR, Radnor, PA, USA) as previously described. In brief, acidified PBS and 200 ng of internal PGB1 standard were added and solid phase extraction using C18 RP-columns (100 mg, UCT, Bristol, PA, USA) was performed. After elution with methanol, samples were analyzed by RP-HPLC using a C-18 Radial-PAK column (Waters, Eschborn, Germany).

[3] = target: T2, cathepsin G (Homo sapiens, UniProt P08311); assay: Cathepsin G activity in a cell-free assay (Suc-AAPF-pNA substrate); assay type: biochemical; settings: for Cat. G IC50 / IC50 / remaining activity at 10 µM: cell-free; for Cat. G IC50 / IC50: purified cathepsin G from human neutrophils; for IC50: read-out: Cat. G IC50 (converted); for remaining activity at 10 µM: residual activity at 10 µM, mean ± SEM, 3–4 experiments, read-out: Cat. G Activity [% Control]
T2 construct: purified cathepsin G (0.2 µg) from human neutrophils; purchased Calbiochem; host or cells: human neutrophils (natural source)
T2 sequence (P08311 21-244 limits assumed): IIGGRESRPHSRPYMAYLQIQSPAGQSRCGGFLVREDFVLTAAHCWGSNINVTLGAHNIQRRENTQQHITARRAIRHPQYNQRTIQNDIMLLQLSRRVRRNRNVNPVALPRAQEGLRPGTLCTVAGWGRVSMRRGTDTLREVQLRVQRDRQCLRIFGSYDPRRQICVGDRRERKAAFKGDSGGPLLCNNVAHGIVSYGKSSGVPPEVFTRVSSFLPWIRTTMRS
Description: Commercially available purified cathepsin G (0.2 µg) from human neutrophils (Calbiochem, La Jolla, CA, USA) was mixed with test compounds or DMSO (vehicle control) in 200 µL 0.1 M HEPES pH 7.4, 0.5 M NaCl, and 10% DMSO in a 96-well plate (Greiner Bio-One, Frickenhausen, Germany) and pre-incubated for 20 min at 25 °C. Then, N-Suc–Ala–Ala–Pro–Phe–pNA (Suc–AAPF–pNA) (1 mM) as substrate for cathespin G was added, and the absorbance was measured at 410 nm at 25 °C using a Victor^2 plate reader (PerkinElmer, Waltham, MA, USA).

| SMILES | IC50 [1] | remaining activity at 10 µM ([1]; human neutrophils) | IC50 [2] | remaining activity at 10 µM [2] | Cat. G IC50 [3] | IC50 [3] | remaining activity at 10 µM [3] | inhibition at 10 µM ([1]; at 10 µM, human neutrophils, read-out: inhibition of 5-LO activity in intact cells) | inhibition at 10 µM [2] | 5-LO Activity [% Control] cell-based ([1]; human neutrophils) | inhibition of 5-LO activity in intact cells ([1]; at 10 µM, human neutrophils) | inhibition of 5-LO activity, cell-free [2] | 5-LO Activity [% Control] cell-free [2] | inhibition at 10 µM ([3]; at 10 µM) | inhibition of cathepsin G ([3]; at 10 µM) | fold more potent than AKBA 1 in intact cells ([1]; human neutrophils, IC50 comparison) |
| --- | --- | --- | --- | --- | --- | --- | --- | --- | --- | --- | --- | --- | --- | --- | --- | --- |
| CC(=O)O[C@@H]1CC[C@@]2(C)[C@@H](CC[C@]3(C)[C@@H]2C(=O)C=C2[C@@H]4[C@@H](C)[C@H](C)CC[C@]4(C)CC[C@]23C)[C@@]1(C)C(=O)O [compound 1, 3-O-acteyl-11-keto-β-BA] | 3 µM | 23.1 ± 9.8% | 3 µM | 40.7 ± 10.8% | submicromolar | 0.6 µM | 14.8 ± 0.9% | – | – | – | – | – | – | – | – | – |
| C[C@H]1[C@H](C)CC[C@]2(C)CC[C@]3(C)C(=CC(=O)[C@@H]4[C@@]5(C)CC[C@@H](O)[C@](C)(C(=O)O)[C@@H]5CC[C@]43C)[C@H]12 [compound 2, 11-keto-β-BA] | 3.5 µM | 25.7 ± 7.3% | 4.6 µM | 31.1 ± 5% | – | 4.1 µM | 29.4 ± 3.5% | – | – | – | – | – | – | – | – | – |
| C[C@H]1[C@H](C)CC[C@]2(C)CC[C@]3(C)C(=CC[C@@H]4[C@@]5(C)CC[C@@H](O)[C@](C)(C(=O)O)[C@@H]5CC[C@]43C)[C@H]12 [compound 3, β-BA] | – | 53 ± 7.6% | – | 78.7 ± 12.6% | submicromolar | 0.5 µM | 27.7 ± 1.8% | 47% | 21 to 26% | – | – | – | – | – | – | – |
| CC(=O)O[C@@H]1CC[C@@]2(C)[C@@H](CC[C@]3(C)[C@@H]2CC=C2[C@@H]4[C@@H](C)[C@H](C)CC[C@]4(C)CC[C@]23C)[C@@]1(C)C(=O)O [compound 4, 3-O-acteyl-β-BA] | – | – | – | 73.5 ± 13.3% | – | 2 µM | 28.1 ± 4.9% | – | 21 to 26% | n.i. | – | – | – | – | – | – |
| C=C(C)[C@@H]1CC[C@]2(C)[C@H](CC=C3[C@@H]4[C@@H](C)[C@H](C)CC[C@]4(C)CC[C@]32C)[C@@]1(C)CCC(=O)O [compound 5] | – | 74.5 ± 3.7% | – | – | – | – | 69.8 ± 8% | – | – | – | hardly active | failed in this respect | n.i. | – | – | – |
| CC(C)[C@@H]1CC[C@]2(C)[C@H](CC=C3[C@@H]4[C@@H](C)[C@H](C)CC[C@]4(C)CC[C@]32C)[C@@]1(C)CCC(=O)O [compound 6] | – | – | – | – | – | – | 70.4 ± 3.9% | – | – | n.i. | hardly active | failed in this respect | n.i. | – | – | – |
| CC(C)[C@@H]1CC[C@]2(C)[C@H](C(=O)C=C3[C@@H]4[C@@H](C)[C@H](C)CC[C@]4(C)CC[C@]32C)[C@@]1(C)CCC(=O)O [compound 7] | 4.3 µM | 7.1 ± 3.3% | – | 73 ± 8.1% | – | – | 53.8 ± 8.1% | – | 27% | – | – | – | – | – | – | – |
| C=C(C)[C@@H]1CC[C@]2(C)CC[C@]3(C)[C@H](CC[C@@H]4[C@@]5(C)CC[C@@H](O)[C@](C)(C(=O)O)[C@@H]5CC[C@]43C)[C@@H]12 [compound 9] | 4 µM | 36.2 ± 5.1% | – | 76.6 ± 12.2% | – | – | 58.1 ± 3.6% | – | – | – | – | did not markedly inhibit 5-LO | – | 27 to 44% | – | – |
| C=C(C)[C@@H]1CC[C@]2(C)CC[C@]3(C)[C@H](CC[C@@H]4[C@@]5(C)CC[C@@H](OC(C)=O)[C@](C)(C(=O)O)[C@@H]5CC[C@]43C)[C@@H]12 [compound 10] | – | 88.7 ± 6.7% | – | – | – | 7.5 µM | 35.9 ± 2.5% | – | – | – | – | did not markedly inhibit 5-LO | n.i. | > 50% | – | – |
| C=C(C)[C@@H]1CC[C@]2(CO)CC[C@]3(C)[C@H](CC[C@@H]4[C@@]5(C)CC[C@@H](O)[C@](C)(C(=O)O)[C@@H]5CC[C@]43C)[C@@H]12 [compound 11] | 4.6 µM | 24 ± 7.2% | 10 µM | 52.7 ± 7.1% | – | – | 68.1 ± 6.5% | – | – | – | – | – | – | 27 to 44% | – | – |
| C=C(C)[C@@H]1CC[C@]2(CO)CC[C@]3(C)[C@H](CC[C@@H]4[C@@]5(C)CC[C@@H](OC(C)=O)[C@](C)(C(=O)O)[C@@H]5CC[C@]43C)[C@@H]12 [compound 12] | 5.1 µM | 28.4 ± 11.1% | 8.3 µM | 41.8 ± 3.4% | – | – | 87.2 ± 2.5% | – | – | – | – | – | – | – | failed to markedly inhibit cathepsin G | – |
| CC(C)=CCC[C@H](C(=O)O)[C@@H]1CC[C@]2(C)C3=CC[C@H]4C(C)(C)[C@H](O)CC[C@]4(C)[C@H]3CC[C@@]12C [compound 13] | 2.9 µM | 8.2 ± 2.2% | – | 89.6 ± 8.5% | – | – | 72.3 ± 3.6% | – | – | – | – | – | – | 27 to 44% | – | – |
| CC(C)=CCC[C@H](C(=O)O)[C@@H]1CC[C@]2(C)C3=C(CC[C@@]12C)[C@@]1(C)CC[C@@H](O)C(C)(C)[C@@H]1CC3 [compound 14] | 1.1 µM | 3.1 ± 0.6% | – | 66 ± 15.1% | – | – | 73 ± 7.3% | – | 34% | – | – | – | – | 27 to 44% | – | about 3 fold |
